{
  "source": "patent US20190060337A1",
  "about": "“COMPOSITIONS COMPRISING BETA-GLUCOGALLIN AND THERAPEUTIC APPLICATIONS THEREOF IN CONTROLLED KINETICS OF CARBOHYDRATE BREAKDOWN AND MONOSACCHARIDE ABSORPTION” (priority 2017, published 2019)",
  "assay": "Toxicity (LD50)",
  "conditions": "in vivo",
  "data": [
    {"compound": "O=C(O[C@@H]1O[C@H](CO)[C@@H](O)[C@H](O)[C@H]1O)c1cc(O)c(O)c(O)c1", "note": "[β-glucogallin, 1-O-galloyl-β-D-glucose]", "values": [
      {"measurement": "LD50", "value": "approx. 2000 mg/kg bodyweight"}
    ]}
  ]
}
